Reference: patent US4719229A, “Antihypercholesterolemic agents” (Merck & Co., Inc., priority 1987, dated 1988)

Target: T1, HMG-CoA reductase (Rattus norvegicus, UniProt P51639)
T1 construct: from tissue; inferred from the cited J. Med. Chem. 1985, 28, 347
T1 sequence (P51639 1-887): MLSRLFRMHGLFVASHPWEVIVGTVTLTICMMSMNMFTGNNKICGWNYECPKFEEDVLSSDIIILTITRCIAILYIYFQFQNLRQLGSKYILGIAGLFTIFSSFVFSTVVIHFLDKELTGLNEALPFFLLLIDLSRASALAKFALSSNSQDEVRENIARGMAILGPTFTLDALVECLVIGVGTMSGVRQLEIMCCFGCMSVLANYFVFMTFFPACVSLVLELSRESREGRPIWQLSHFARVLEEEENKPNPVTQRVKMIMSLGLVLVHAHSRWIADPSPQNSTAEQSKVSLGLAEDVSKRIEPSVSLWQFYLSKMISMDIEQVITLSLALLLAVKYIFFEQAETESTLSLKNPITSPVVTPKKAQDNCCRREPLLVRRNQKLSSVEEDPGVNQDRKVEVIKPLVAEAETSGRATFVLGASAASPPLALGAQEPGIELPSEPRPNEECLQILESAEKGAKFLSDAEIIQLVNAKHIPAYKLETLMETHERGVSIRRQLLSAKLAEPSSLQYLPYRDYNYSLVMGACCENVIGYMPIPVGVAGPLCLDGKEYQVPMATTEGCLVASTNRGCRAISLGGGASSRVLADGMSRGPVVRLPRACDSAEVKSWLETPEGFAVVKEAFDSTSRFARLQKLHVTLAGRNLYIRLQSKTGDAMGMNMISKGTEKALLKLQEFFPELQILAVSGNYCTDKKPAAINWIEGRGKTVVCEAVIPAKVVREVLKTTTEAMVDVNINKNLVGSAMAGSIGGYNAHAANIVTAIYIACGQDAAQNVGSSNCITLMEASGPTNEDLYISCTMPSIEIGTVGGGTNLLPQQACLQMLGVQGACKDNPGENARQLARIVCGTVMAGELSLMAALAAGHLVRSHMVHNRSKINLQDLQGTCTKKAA
Assay: intrinsic HMG-CoA reductase inhibition activity, in vitro protocol of J. Med. Chem., 1985, 28, page 347
Type: biochemical
Conditions: tested as the potassium salt
Protocol: The intrinsic HMG-CoA reductase inhibition activity of the claimed compounds is measured in the in vitro protocol described is J. Med. Chem., 1985, 28, page 347.

Question: `C[C@@H]1CC[C@H]2C(=CC(O)[C@H](C)[C@@H]2CC[C@@H](O)C[C@@H](O)CC(=O)O)C1` (stereo partly shown) was tested. Which IC50 did it give?
Answer: 5.87 µM
